Laboratory results published in patent US10233173B2, “Substituted 1,2,3-triazoles as NR2B-selective NMDA modulators” (JANSSEN PHARMACEUTICA NV, priority 2016, dated 2019).

Molecular target: human GluN1/GluN2B NMDA receptors (Homo sapiens, UniProt Q05586+Q13224)
Experiment: Cell-based calcium flux (FLIPR) assay on cloned human NR1/NR2B ion channels expressed in mammalian cells
Conditions: standard assay
Method: Effects of Test Articles on Cloned Human NR1/NR2B Ion Channels Expressed in Mammalian Cells
NMDA receptors are ion channels that are highly permeable to Ca^2+ ions, rendering it possible to monitor NMDA receptor function using cell-based calcium flux assay. In this assay, co-agonists glutamate and glycine are added to cells heterologously expressing human GluN1/GluN2B NMDA receptors to initiate cellular Ca^2+ influx. The time course of the changes in intracellular calcium is measured using a fluorescent dye and a FLIPR (Fluorometric Imaging Plate Reader) device.
Twenty four hours before measurements, the expression of the NMDA receptors in the stable cell line is induced with Tet-On inducible system in the presence of a non-selective NMDA receptor blocker. On the day of the experiment, cell culture media is carefully washed and the cells are loaded with Calcium 5 Dye Kit (Molecular Devices) in dye loading buffer containing 149 mM NaCl, 4 mM KCl, 2 mM CaCl2, and 1.5 mM MgCl2, 10 mM HEPES and 5 mM D-glucose; pH 7.4. After 1 h incubation at the room temperature, the dye is washed away with the assay buffer (149 mM NaCl (standard assay) or 150 mM (HTS assay), 4 mM KCl (standard assay) or 3 mM (HTS assay), 2 mM CaCl2, 0.01 mM EDTA, 10 mM HEPES and 5 mM D-glucose; pH 7.4) In the FLIPR TETRA reader, various concentrations of the test compounds are added to the cells for 5 min while fluorescence is monitored to detect potential agonist activity. Next, co-agonists, glutamate and glycine are added for another 5 minutes. The concentration of glutamate corresponding to ˜EC80 (standard assay) or EC40 (HTS assay) is used to maximize the assay's signal window or the ability to detect NMDA receptor antagonists and negative allosteric modulators, respectively. A saturating concentration (10 μM) of glycine is also present in the assay. […] The fluorescent signal in the presence of test compounds is quantified and normalized to the signal defined by the appropriate control wells.

[1] = glutamate at ~EC80, FLIPR calcium flux
[2] = human GluN1/GluN2B, calcium flux (FLIPR), glutamate ~EC80

human GluN1/GluN2B NMDA receptors, sequence (Q13224 27-1484, other chains not shown): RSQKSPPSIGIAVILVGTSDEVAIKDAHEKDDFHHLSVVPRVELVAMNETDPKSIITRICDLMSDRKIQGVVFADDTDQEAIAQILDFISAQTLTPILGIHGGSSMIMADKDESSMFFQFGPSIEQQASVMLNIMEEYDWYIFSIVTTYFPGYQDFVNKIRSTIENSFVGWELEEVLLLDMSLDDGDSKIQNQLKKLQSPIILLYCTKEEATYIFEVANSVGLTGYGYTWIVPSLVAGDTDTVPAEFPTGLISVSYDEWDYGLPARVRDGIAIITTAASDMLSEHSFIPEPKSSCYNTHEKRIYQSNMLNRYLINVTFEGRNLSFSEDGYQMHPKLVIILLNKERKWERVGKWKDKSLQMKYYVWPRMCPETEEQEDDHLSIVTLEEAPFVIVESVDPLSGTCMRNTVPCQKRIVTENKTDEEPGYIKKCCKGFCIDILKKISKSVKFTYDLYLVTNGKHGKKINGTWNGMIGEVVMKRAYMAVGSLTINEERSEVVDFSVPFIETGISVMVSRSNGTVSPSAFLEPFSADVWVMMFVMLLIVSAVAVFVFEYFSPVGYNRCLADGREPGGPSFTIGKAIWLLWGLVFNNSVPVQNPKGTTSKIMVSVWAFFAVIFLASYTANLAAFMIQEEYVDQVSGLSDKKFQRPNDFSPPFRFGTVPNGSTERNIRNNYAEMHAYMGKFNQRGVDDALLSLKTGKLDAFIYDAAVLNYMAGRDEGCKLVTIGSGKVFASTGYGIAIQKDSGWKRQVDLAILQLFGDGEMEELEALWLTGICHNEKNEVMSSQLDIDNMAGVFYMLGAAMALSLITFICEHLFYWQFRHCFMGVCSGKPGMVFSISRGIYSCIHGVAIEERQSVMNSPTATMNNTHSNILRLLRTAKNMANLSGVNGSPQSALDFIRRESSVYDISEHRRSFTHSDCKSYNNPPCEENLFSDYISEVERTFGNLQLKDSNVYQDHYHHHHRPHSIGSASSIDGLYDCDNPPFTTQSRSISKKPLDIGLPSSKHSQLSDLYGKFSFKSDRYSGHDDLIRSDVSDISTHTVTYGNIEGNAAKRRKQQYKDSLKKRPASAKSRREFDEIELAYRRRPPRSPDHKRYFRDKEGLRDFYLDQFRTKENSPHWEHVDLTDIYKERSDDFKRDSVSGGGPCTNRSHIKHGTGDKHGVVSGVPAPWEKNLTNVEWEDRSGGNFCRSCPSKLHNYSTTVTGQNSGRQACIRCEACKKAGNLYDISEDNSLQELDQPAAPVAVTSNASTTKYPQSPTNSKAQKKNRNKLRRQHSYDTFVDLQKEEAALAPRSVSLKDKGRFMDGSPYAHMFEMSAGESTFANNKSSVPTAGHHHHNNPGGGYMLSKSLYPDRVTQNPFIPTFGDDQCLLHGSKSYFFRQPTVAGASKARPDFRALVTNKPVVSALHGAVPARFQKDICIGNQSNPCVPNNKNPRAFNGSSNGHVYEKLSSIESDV

Compound | IC50 [1] | IC50 [2]
CCc1cnc(OCc2cn(-c3ccnc(C(F)(F)F)c3)nn2)nc1 [Example 667, 5-Ethyl-2-[[1-[2-(trifluoromethyl)-4-pyridyl]triazol-4-yl]methoxy]pyrimidine] | 0.184 µM | 
Cc1cc(-n2cc(COc3ncc(F)cn3)nn2)ccc1F [Example 474, 5-Fluoro-2-[[1-(4-fluoro-3-methyl-phenyl)triazol-4-yl]methoxy]pyrimidine] | 0.022 µM | 
Fc1ccc(-n2cc(COc3ncccc3F)nn2)cc1C(F)(F)F [Example 427, 3-Fluoro-2-[[1-[4-fluoro-3-(trifluoromethyl)phenyl]triazol-4-yl]methoxy]pyridine] | 0.897 µM | 
FC(F)c1ccnc(OCc2cn(-c3ccc(Cl)c(C(F)F)c3)nn2)n1 [Example 628, 2-[[1-[4-Chloro-3-(difluoromethyl)phenyl]triazol-4-yl]methoxy]-4-(difluoromethyl)pyrimidine] | 0.042 µM | 
Fc1ccc(-n2cc(COc3nccc(-n4cccn4)n3)nn2)cc1C(F)F [Example 699, 2-((1-(3-(Difluoromethyl)-4-fluorophenyl)-1H-1,2,3-triazol-4-yl)methoxy)-4-(1H-pyrazol-1-yl)pyrimidine] | 0.389 µM | 
Fc1ccc(-n2cc(COc3ncc(Cl)cn3)nn2)cc1C(F)(F)F [Example 74, 5-Chloro-2-[[1-[4-fluoro-3-(trifluoromethyl)phenyl]triazol-4-yl]methoxy]pyrimidine] |  | 0.016 µM
COc1ccnc(OCc2cn(-c3ccc(Cl)c(OC(F)F)c3)nn2)n1 [Example 29, 2-[[1-[4-Chloro-3-(difluoromethoxy)phenyl]triazol-4-yl]methoxy]-4-methoxy-pyrimidine] |  | 0.011 µM
Cc1cccc(-n2cc(COc3ncc(C(C)(C)O)cn3)nn2)c1 [Example 249, 2-[2-[[1-(m-Tolyl)triazol-4-yl]methoxy]pyrimidin-5-yl]propan-2-ol] |  | 0.289 µM
CNc1nc(OCc2cn(-c3ccc(F)c(OC(F)F)c3)nn2)ncc1F [Example 518, 2-[[1-[3-(Difluoromethoxy)-4-fluoro-phenyl]triazol-4-yl]methoxy]-5-fluoro-N-methyl-pyrimidin-4-amine] | 0.092 µM | 
COc1cc(-n2cc(COc3ncc(C)cn3)nn2)ccc1Cl [Example 88, 2-[[1-(4-Chloro-3-methoxy-phenyl)triazol-4-yl]methoxy]-5-methyl-pyrimidine] |  | 0.019 µM
FC(F)c1cc(-n2cc(COc3nccc(N4CCCC4)n3)nn2)ccc1Cl [Example 634, 2-[[1-[4-Chloro-3-(difluoromethyl)phenyl]triazol-4-yl]methoxy]-4-pyrrolidin-1-yl-pyrimidine] | 0.012 µM | 
Fc1ccc(-n2cc(COc3ccccn3)nn2)cc1OC(F)F [Example 4, 2-[[1-[3-(Difluoromethoxy)-4-fluoro-phenyl]triazol-4-yl]methoxy]pyridine] |  | 0.392 µM
COc1cnc(OCc2cn(-c3ccc(Cl)c(OCCF)c3)nn2)nc1 [Example 193, 2-[[1-[4-Chloro-3-(2-fluoroethoxy)phenyl]triazol-4-yl]methoxy]-5-methoxy-pyrimidine] |  | 0.089 µM
Fc1ccc(-n2cc(COc3ncc(Cl)cn3)nn2)cc1F [Example 600, 5-Chloro-2-[[1-(3,4-difluorophenyl)triazol-4-yl]methoxy]pyrimidine] | 0.238 µM | 
OCc1ccnc(OCc2cn(-c3ccc(Cl)c(OC(F)F)c3)nn2)n1 [Example 383, [2-[[1-[4-Chloro-3-(difluoromethoxy)phenyl]triazol-4-yl]methoxy]pyrimidin-4-yl]methanol] |  | 0.008 µM
Fc1ccc(-n2cc(COc3ncccn3)nn2)cc1Br [Example 9, 2-[[1-(3-Bromo-4-fluoro-phenyl)triazol-4-yl]methoxy]pyrimidine] |  | 0.02 µM
Cc1ccnc(OCc2cn(-c3ccc(Cl)c(OC(F)F)c3)nn2)n1 [Example 21, 2-[[1-[4-Chloro-3-(difluoromethoxy)phenyl]triazol-4-yl]methoxy]-4-methyl-pyrimidine] |  | 0.002 µM
FC(F)(F)Oc1cccc(-n2cc(COc3ncccn3)nn2)c1 [Example 341, 2-[[1-[3-(Trifluoromethoxy)phenyl]triazol-4-yl]methoxy]pyrimidine] |  | 0.538 µM
